These results are taken from patent US11618767B2, “Carboxy substituted glucocorticoid receptor agonists” (Eli Lilly and Company, priority 2021, dated 2023).

The target in the assay is T1, GR-LBD (Homo sapiens, UniProt P04150).
T1 construct: purchased Life Technologies A15899
T1 sequence (P04150 524-758 limits assumed): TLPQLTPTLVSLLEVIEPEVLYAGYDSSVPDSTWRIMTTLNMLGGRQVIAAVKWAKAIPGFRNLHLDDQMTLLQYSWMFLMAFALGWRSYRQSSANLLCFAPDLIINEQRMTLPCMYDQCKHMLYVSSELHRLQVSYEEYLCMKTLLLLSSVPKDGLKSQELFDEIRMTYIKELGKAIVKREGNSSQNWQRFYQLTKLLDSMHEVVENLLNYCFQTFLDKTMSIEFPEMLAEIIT
In words: hGR CoActivator Recruitment Assay (LanthaScreen TR-Fret GR Coactivator Assay). The class given is biochemical. The note with it: TR-FRET emission ratio 520/490; 10-point serial dilution, top concentration 200 nM; Fluorescein-SRC1-4 coactivator peptide; read-out: relative IC50. The procedure:
hGR CoActivator Recruitment Assay The activity of glucocorticoid compounds was measured using the LanthaScreen TR-Fret GR Coactivator Assay from Life Technologies (A15899). The compounds were acoustically transferred to an assay plate in a 3-fold 10-point serial dilution with a top concentration of 200 nM. Ten microliters of a 2× solution of GR-LBD was added to the compound plate and incubated for 10 min. Then ten microliters of a 2× solution of Fluoresein-SRC1-4 and Tb labelled anti-GST antibody was added to the plate. The plate was incubated in the dark for two hours and then read on an Envision plate reader, with excitation at 340 nm and emission at 520 nm (Fluorescein) and 490 nm (Terbium). The emission ratio of 520/490 was analyzed in Genedata. To obtain percent activity, the data was compared to a negative control of DMSO and positive control of […] dexamethasone.
For orientation: Time-resolved FRET reads energy transfer from a long-lived donor to a nearby acceptor.

A word on the IC50: it is the concentration that inhibits the measured activity by half. `C[C@]12C=CC(=O)C=C1CC[C@@H]1[C@@H]2[C@@H](O)C[C@@]2(C)[C@H]1C[C@H]1O[C@@H](c3ccc(Cc4cccc(C(=O)O)c4)cc3F)O[C@]12C(=O)CO` [Example 9]: the IC50 was less than 200 nM.

On to `COc1ccc(OCc2ccccc2C(=O)O)c(F)c1[C@@H]1O[C@@H]2C[C@H]3[C@@H]4CCC5=CC(=O)C=C[C@]5(C)[C@H]4[C@@H](O)C[C@]3(C)[C@]2(C(=O)CO)O1` [Example 13], for which the IC50 is greater than 200 nM.

Take `C[C@]12C=CC(=O)C=C1CC[C@@H]1[C@@H]2[C@@H](O)C[C@@]2(C)[C@H]1C[C@H]1O[C@@H](c3ccc(Cc4ccc(C(=O)O)cc4)cc3F)O[C@]12C(=O)CO` (single isomer, unassigned) [Example 1]: the IC50 came out at 2.14 nM.

Take `C[C@]12C=CC(=O)C=C1CC[C@@H]1[C@@H]2[C@@H](O)C[C@@]2(C)[C@H]1C[C@H]1O[C@@H](c3ccc(Oc4ccc(C(=O)O)cc4)cc3)O[C@]12C(=O)CO` [Example 5]: the IC50 is less than 200 nM.

With `C[C@]12C=CC(=O)C=C1CC[C@@H]1[C@@H]2[C@@H](O)C[C@@]2(C)[C@H]1C[C@H]1O[C@H](c3ccc(Oc4cccc(C(=O)O)c4)cc3)O[C@]12C(=O)CO` [Example 8], the IC50 is less than 200 nM.

In the case of `Cc1ccc(OCc2cccc(C(=O)O)c2)c(F)c1[C@@H]1O[C@@H]2C[C@H]3[C@@H]4CCC5=CC(=O)C=C[C@]5(C)[C@H]4[C@@H](O)C[C@]3(C)[C@]2(C(=O)CO)O1` [Example 3, 3-((2-Fluoro-3-((6aR,6bS,7S,8aS,8bS,10R,11aR,12aS,12bS)-7-hydroxy-8b-(2-hydroxyacetyl)-6a, 8a-dimethyl-4-oxo-2,4,6a,6b,7,8,8a,8b,11a,12,12a,12b-dodecahydro-1H-naphtho[2′,1′:4,5]indeno[1,2-d][1,3]dioxol-10-yl)-4-methylphenoxy)methyl)benzoic Acid], the IC50 is less than 200 nM.

For `Cc1ccc(OCc2ccccc2C(=O)O)c(F)c1[C@H]1O[C@@H]2C[C@H]3[C@@H]4CCC5=CC(=O)C=C[C@]5(C)[C@H]4[C@@H](O)C[C@]3(C)[C@]2(C(=O)CO)O1` [Example 15], the IC50 was less than 200 nM.

Turning to `C[C@]12C=CC(=O)C=C1CC[C@@H]1[C@@H]2[C@@H](O)C[C@@]2(C)[C@H]1C[C@H]1O[C@H](c3ccc(Oc4ccc(C(=O)O)cc4)cc3)O[C@]12C(=O)CO` [Example 6], the IC50 was less than 200 nM.

On to `COc1ccc(OCc2cccc(C(=O)O)c2)c(F)c1[C@@H]1O[C@@H]2C[C@H]3[C@@H]4CCC5=CC(=O)C=C[C@]5(C)[C@H]4[C@@H](O)C[C@]3(C)[C@]2(C(=O)CO)O1` [Example 11], for which the IC50 is less than 200 nM.

With `C[C@]12C=CC(=O)C=C1CC[C@@H]1[C@@H]2[C@@H](O)C[C@@]2(C)[C@H]1C[C@H]1O[C@H](c3ccc(Cc4cccc(C(=O)O)c4)cc3F)O[C@]12C(=O)CO` [Example 10], the half-inhibitory concentration (IC50) is greater than 200 nM.

With `COc1ccc(OCc2ccccc2C(=O)O)c(F)c1[C@H]1O[C@@H]2C[C@H]3[C@@H]4CCC5=CC(=O)C=C[C@]5(C)[C@H]4[C@@H](O)C[C@]3(C)[C@]2(C(=O)CO)O1` [Example 14], the IC50 was less than 200 nM.

Turning to `C[C@]12C=CC(=O)C=C1CC[C@@H]1[C@@H]2[C@@H](O)C[C@@]2(C)[C@H]1C[C@H]1O[C@H](c3ccc(Cc4ccc(C(=O)O)cc4)cc3F)O[C@]12C(=O)CO` (single isomer, unassigned) [Example 2], the IC50 turned out to be 4.5 nM.

With `Cc1ccc(OCc2cccc(C(=O)O)c2)c(F)c1[C@H]1O[C@@H]2C[C@H]3[C@@H]4CCC5=CC(=O)C=C[C@]5(C)[C@H]4[C@@H](O)C[C@]3(C)[C@]2(C(=O)CO)O1` [Example 4, 3-((2-Fluoro-3-((6aR,6bS,7S,8aS,8bS,10 S,11aR,12a5,12bS)-7-hydroxy-8b-(2-hydroxyacetyl)-6a, 8a-dimethyl-4-oxo-2,4,6a,6b,7,8,8a, 8b,11a,12,12a,12b-dodecahydro-1H-naphtho[2′,1′:4,5]indeno[1,2-d][1,3]dioxol-10-yl)-4-methylphenoxy)methyl)benzoic Acid], the IC50 was less than 200 nM.

Turning to `C[C@]12C=CC(=O)C=C1CC[C@@H]1[C@@H]2[C@@H](O)C[C@@]2(C)[C@H]1C[C@H]1O[C@@H](c3ccc(Oc4cccc(C(=O)O)c4)cc3)O[C@]12C(=O)CO` [Example 7], the IC50 was less than 200 nM.

With `COc1ccc(OCc2cccc(C(=O)O)c2)c(F)c1[C@H]1O[C@@H]2C[C@H]3[C@@H]4CCC5=CC(=O)C=C[C@]5(C)[C@H]4[C@@H](O)C[C@]3(C)[C@]2(C(=O)CO)O1` [Example 12], the IC50 was less than 200 nM.
